Experimental data from ChEMBL document CHEMBL1201862, “PubChem BioAssay data set” (2004).
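Protocol summary: plate cells (96-well), add compound at 5 concentrations, incubate 48 h, interpolate endpoints linearly. Here, GI50 denotes the concentration required for 50% inhibition of growth.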 Activity calls are given as the source filed them. Rule as the data show it: active = GI50 up to about 1.1 µM and inactive = higher.

Experiments:
Test in all cases: NCI anticancer screen, dose series, 48 h
LOX IMVI = tested on: LOX IMVI
NCI-H460 = tested on: NCI-H460
OVCAR-5 = tested on: OVCAR-5
IGROV-1 = tested on: IGROV-1
RPMI-8226 = tested on: RPMI-8226
MDA-MB-435 = tested on: MDA-MB-435
HCC 2998 = tested on: HCC 2998
NCI-H23 = tested on: NCI-H23
SF-539 = tested on: SF-539
OVCAR-8 = tested on: OVCAR-8
HCT-15 = tested on: HCT-15
SK-MEL-2 = tested on: SK-MEL-2
EKVX = tested on: EKVX
SNB-75 = tested on: SNB-75
SW-620 = tested on: SW-620
HT-29 = tested on: HT-29
K562 = tested on: K562
SK-MEL-5 = tested on: SK-MEL-5
HCT-116 = tested on: HCT-116
NCI-H226 = tested on: NCI-H226

| Structure (SMILES) | GI50 (LOX IMVI) | GI50 (NCI-H460) | GI50 (OVCAR-5) | GI50 (IGROV-1) | GI50 (RPMI-8226) | GI50 (MDA-MB-435) | GI50 (HCC 2998) | GI50 (NCI-H23) | GI50 (SF-539) | GI50 (OVCAR-8) | GI50 (HCT-15) | GI50 (SK-MEL-2) | GI50 (EKVX) | GI50 (SNB-75) | GI50 (SW-620) | GI50 (HT-29) | GI50 (K562) | GI50 (SK-MEL-5) | GI50 (HCT-116) | GI50 (NCI-H226) |
| --- | --- | --- | --- | --- | --- | --- | --- | --- | --- | --- | --- | --- | --- | --- | --- | --- | --- | --- | --- | --- |
| c1ccc(/N=C2\c3ccsc3/C(=N/c3ccccc3)c3ccsc32)cc1 | 0.458 µM (active) | 2.01 µM (inactive) | 1.67 µM (inactive) | 1.92 µM (inactive) | 1.94 µM (inactive) | 0.213 µM (active) | 3.94 µM (inactive) | 0.914 µM (active) | 1.99 µM (inactive) | 2.11 µM (inactive) | 2.04 µM | 1.6 µM (inactive) | 2.09 µM (inactive) | 1.2 µM (inactive) | 1.89 µM (inactive) | 2.67 µM (inactive) | 1.83 µM (inactive) | 1.09 µM (active) | 1.93 µM (inactive) | 5.57 µM (inactive) |
| CCOC(=O)[C@@]1(C(C)=O)CC(C)=C(C)C[S@@+]1[O-] | > 100 µM (inactive) | > 100 µM (inactive) | > 100 µM (inactive) | > 100 µM (inactive) | > 100 µM (inactive) | > 100 µM (inactive) | > 100 µM (inactive) | > 100 µM (inactive) | – | > 100 µM (inactive) | > 100 µM | > 100 µM (inactive) | > 100 µM (inactive) | > 100 µM (inactive) | > 100 µM (inactive) | – | > 100 µM (inactive) | – | > 100 µM (inactive) | > 100 µM (inactive) |
| C=C1CC(Cn2cc(C)c(=O)[nH]c2=O)(c2ccc(Cl)cc2)OC1=O (centres undefined) | 1.56 µM (inactive) | 15.8 µM (inactive) | 14.9 µM (inactive) | 1.53 µM (inactive) | 0.414 µM (active) | 3.85 µM (inactive) | 3.8 µM (inactive) | 3.3 µM (inactive) | 10.9 µM (inactive) | 3.64 µM (inactive) | 0.867 µM | 2.12 µM (inactive) | 11.9 µM (inactive) | 10.7 µM (inactive) | 1.44 µM (inactive) | 1.69 µM (inactive) | 0.673 µM (active) | 2.67 µM (inactive) | 1.65 µM (inactive) | 13.4 µM (inactive) |
| COc1ccc(-c2cc3ccccc3oc2=O)cc1OC | > 100 µM (inactive) | – | > 100 µM (inactive) | > 100 µM (inactive) | 44.6 µM (inactive) | > 100 µM (inactive) | > 10 µM (inactive) | > 100 µM (inactive) | > 100 µM (inactive) | > 100 µM (inactive) | > 100 µM | > 100 µM (inactive) | > 100 µM (inactive) | 60.3 µM (inactive) | > 100 µM (inactive) | > 100 µM (inactive) | > 100 µM (inactive) | 81.5 µM (inactive) | > 100 µM (inactive) | > 100 µM (inactive) |
| c1cc(C[S+]2CCCC2)sc1C[S+]1CCCC1 | > 100 µM (inactive) | > 100 µM (inactive) | > 100 µM (inactive) | > 100 µM (inactive) | > 100 µM (inactive) | > 100 µM (inactive) | > 100 µM (inactive) | > 100 µM (inactive) | > 100 µM (inactive) | > 100 µM (inactive) | > 100 µM | – | > 100 µM (inactive) | > 100 µM (inactive) | > 100 µM (inactive) | > 100 µM (inactive) | > 100 µM (inactive) | > 100 µM (inactive) | > 100 µM (inactive) | > 100 µM (inactive) |
| CC[C@]1(Cc2ccc(OC)c(OC)c2)C=[N+]([O-])O[C@H](OC2CCCC2(c2ccccc2)c2ccccc2)[C@@H]1OC(=O)c1ccccc1 (some centres undefined) | 3.6 µM (inactive) | 14.2 µM (inactive) | 22.3 µM (inactive) | 3.67 µM (inactive) | – | 3.73 µM (inactive) | 9.71 µM (inactive) | 6.37 µM (inactive) | > 100 µM (inactive) | 3.71 µM (inactive) | 11.7 µM | 8 µM (inactive) | 3.86 µM (inactive) | 6.62 µM (inactive) | 8.87 µM (inactive) | 3.57 µM (inactive) | 3.94 µM (inactive) | 4.37 µM (inactive) | 4.51 µM (inactive) | 18 µM (inactive) |
| N#CCc1nc(-c2cc3c(ccc4ccccc43)oc2=O)cs1 | > 100 µM (inactive) | 43.1 µM (inactive) | > 100 µM (inactive) | 15.2 µM (inactive) | > 100 µM (inactive) | > 100 µM (inactive) | 69.3 µM (inactive) | – | 21.5 µM (inactive) | 28.5 µM (inactive) | 69.3 µM | 23.1 µM (inactive) | 20.3 µM (inactive) | 0.507 µM (active) | 91.8 µM (inactive) | 73.1 µM (inactive) | > 100 µM (inactive) | 69.3 µM (inactive) | 54.3 µM (inactive) | 24.7 µM (inactive) |
| CCN(CC)C(=S)SC(=S)N(CC)CC | 23.4 µM (inactive) | 2.3 µM (inactive) | > 100 µM (inactive) | 30.5 µM (inactive) | 15.6 µM (inactive) | 34.1 µM (inactive) | 1.93 µM (inactive) | 26.2 µM (inactive) | > 62.8 µM (inactive) | 31.6 µM (inactive) | 55 µM | 31.3 µM (inactive) | 42.6 µM (inactive) | 31.3 µM (inactive) | 28.6 µM (inactive) | – | 28 µM (inactive) | 5.07 µM (inactive) | 21 µM (inactive) | 33.7 µM (inactive) |
| O=C(NCCCCNCCCNC(=O)c1ccccc1)c1ccccc1 | – | > 100 µM (inactive) | > 100 µM (inactive) | > 100 µM (inactive) | > 100 µM (inactive) | > 100 µM (inactive) | > 100 µM (inactive) | > 100 µM (inactive) | > 100 µM (inactive) | > 100 µM (inactive) | > 100 µM | > 100 µM (inactive) | > 100 µM (inactive) | > 100 µM (inactive) | > 100 µM (inactive) | > 100 µM (inactive) | > 100 µM (inactive) | > 100 µM (inactive) | > 100 µM (inactive) | > 100 µM (inactive) |
| Cc1ccsc1/C=N/Nc1cc(C)c2ccccc2n1 | 12 µM (inactive) | – | 24.3 µM (inactive) | 1.36 µM (inactive) | 3.28 µM (inactive) | 14 µM (inactive) | 14 µM (inactive) | 11.2 µM (inactive) | – | 14.7 µM (inactive) | 11.4 µM | 17.9 µM (inactive) | 6.82 µM (inactive) | 13.8 µM (inactive) | 17.2 µM (inactive) | 3.61 µM (inactive) | 9.06 µM (inactive) | 2.17 µM (inactive) | 12.1 µM (inactive) | 16 µM (inactive) |
| CCN(C(=O)/C=C/c1ccco1)c1ccccc1 | > 100 µM (inactive) | > 100 µM (inactive) | > 100 µM (inactive) | > 100 µM (inactive) | 75.2 µM (inactive) | > 100 µM (inactive) | > 100 µM (inactive) | > 100 µM (inactive) | – | > 100 µM (inactive) | > 100 µM | > 100 µM (inactive) | > 100 µM (inactive) | > 100 µM (inactive) | > 100 µM (inactive) | > 100 µM (inactive) | 46.2 µM (inactive) | > 100 µM (inactive) | > 100 µM (inactive) | > 100 µM (inactive) |
| CC(C)(C)OC(=O)NCC(=O)NC1CC=CCC1NC(=O)CNC(=O)OC(C)(C)C (centres undefined) | > 100 µM (inactive) | > 100 µM (inactive) | > 100 µM (inactive) | > 100 µM (inactive) | > 100 µM (inactive) | > 100 µM (inactive) | > 100 µM (inactive) | > 100 µM (inactive) | > 100 µM (inactive) | > 100 µM (inactive) | > 100 µM | – | – | > 100 µM (inactive) | > 100 µM (inactive) | > 100 µM (inactive) | > 100 µM (inactive) | > 100 µM (inactive) | > 100 µM (inactive) | > 100 µM (inactive) |
| Cc1cn([C@H]2C[C@](C)(CO)N(C)O2)c(=O)[nH]c1=O | > 100 µM (inactive) | > 100 µM (inactive) | > 100 µM (inactive) | > 100 µM (inactive) | > 100 µM (inactive) | > 100 µM (inactive) | > 100 µM (inactive) | > 100 µM (inactive) | – | – | – | > 100 µM (inactive) | > 100 µM (inactive) | > 100 µM (inactive) | > 100 µM (inactive) | > 100 µM (inactive) | > 100 µM (inactive) | > 100 µM (inactive) | > 100 µM (inactive) | > 100 µM (inactive) |
| CC(C)(C)C1=C(Br)C(C(C)(C)C)OP1(=O)O (centres undefined) | > 100 µM (inactive) | > 100 µM (inactive) | > 100 µM (inactive) | > 100 µM (inactive) | – | > 100 µM (inactive) | > 100 µM (inactive) | > 100 µM (inactive) | > 100 µM (inactive) | > 100 µM (inactive) | > 100 µM | > 100 µM (inactive) | > 100 µM (inactive) | > 100 µM (inactive) | – | > 100 µM (inactive) | > 100 µM (inactive) | > 100 µM (inactive) | > 100 µM (inactive) | > 100 µM (inactive) |
| Oc1cc(-c2cccc(OC(F)(F)F)c2)nc2cc3c(cc12)OCO3 | – | 0.0877 µM (active) | – | 0.355 µM (active) | 0.0508 µM (active) | < 0.0156 µM (active) | 0.0631 µM (active) | 0.12 µM (active) | 0.084 µM (active) | 0.155 µM (active) | 0.0475 µM | 0.169 µM (active) | 0.643 µM (active) | 0.568 µM (active) | 0.0883 µM (active) | 1.96 µM (inactive) | 0.0275 µM (active) | 0.0508 µM (active) | 0.0395 µM (active) | 0.239 µM (active) |
